Data published in BindingDB's records for patent US9487490 (Merck Sharp & Dohme Corp, 2016).

Molecular target: T1, Isoform 2 of Nuclear receptor ROR-gamma (RORgT) (Homo sapiens, UniProt P51449)
T1 sequence (P51449 whole entry): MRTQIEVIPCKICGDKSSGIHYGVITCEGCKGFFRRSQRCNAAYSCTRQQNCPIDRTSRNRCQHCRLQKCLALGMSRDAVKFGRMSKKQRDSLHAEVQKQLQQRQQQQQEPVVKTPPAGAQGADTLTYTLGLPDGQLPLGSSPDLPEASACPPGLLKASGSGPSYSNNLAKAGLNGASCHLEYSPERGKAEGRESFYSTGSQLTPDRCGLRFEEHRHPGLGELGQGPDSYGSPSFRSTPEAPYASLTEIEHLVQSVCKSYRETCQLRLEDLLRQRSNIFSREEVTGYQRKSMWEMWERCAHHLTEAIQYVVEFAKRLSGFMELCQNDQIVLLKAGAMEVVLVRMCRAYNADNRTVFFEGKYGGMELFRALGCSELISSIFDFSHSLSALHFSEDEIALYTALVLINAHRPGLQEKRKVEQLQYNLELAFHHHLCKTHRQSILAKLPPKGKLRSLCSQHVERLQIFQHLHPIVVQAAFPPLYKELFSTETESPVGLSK
Assay: TR-FRET Assay
Conditions: pH 7; 4 °C
Protocol: To identify novel antagonists of RORgammaT, an assay was developed which employs the interaction of RORgammaT with its co-activator peptide SRC1_2. […] The RORγ-LBD protein was purified by glutathione sepharose chromatography. […] The mixture was then diluted in assay buffer (50 mM Tris pH 7.0, 50 mM KCl, 1 mM EDTA, 0.1 mM DTT) to obtain RORγ-LBD final concentration of 3 nM in 384-well assay plate. Compounds to be tested were injected to the assay plate using Acoustic Droplet Ejection technology by Echo 550 liquid handler (Labcyte, Calif.).

IC50: 5 nM
SMILES: CC1CC(c2nn(C(=O)c3c(Cl)cccc3C(F)(F)F)c3cccc(F)c23)=CC(O)C1C(=O)O (stereo unspecified) [US9487490, 6C]
